By EC50 is commonly meant the concentration at which the effect is half-maximal.

Molecules are shown by their SMILES.

The values below come from patent US6908935B2, “Calcium receptor modulating agents” (Amgen Inc., priority 2002, dated 2005).

The target in the assay is T1, human parathyroid cell Ca^2+ receptor (hPCaR) (Homo sapiens, UniProt P41180).
T1 construct: expressed in transfected cells
T1 sequence (P41180 20-1078): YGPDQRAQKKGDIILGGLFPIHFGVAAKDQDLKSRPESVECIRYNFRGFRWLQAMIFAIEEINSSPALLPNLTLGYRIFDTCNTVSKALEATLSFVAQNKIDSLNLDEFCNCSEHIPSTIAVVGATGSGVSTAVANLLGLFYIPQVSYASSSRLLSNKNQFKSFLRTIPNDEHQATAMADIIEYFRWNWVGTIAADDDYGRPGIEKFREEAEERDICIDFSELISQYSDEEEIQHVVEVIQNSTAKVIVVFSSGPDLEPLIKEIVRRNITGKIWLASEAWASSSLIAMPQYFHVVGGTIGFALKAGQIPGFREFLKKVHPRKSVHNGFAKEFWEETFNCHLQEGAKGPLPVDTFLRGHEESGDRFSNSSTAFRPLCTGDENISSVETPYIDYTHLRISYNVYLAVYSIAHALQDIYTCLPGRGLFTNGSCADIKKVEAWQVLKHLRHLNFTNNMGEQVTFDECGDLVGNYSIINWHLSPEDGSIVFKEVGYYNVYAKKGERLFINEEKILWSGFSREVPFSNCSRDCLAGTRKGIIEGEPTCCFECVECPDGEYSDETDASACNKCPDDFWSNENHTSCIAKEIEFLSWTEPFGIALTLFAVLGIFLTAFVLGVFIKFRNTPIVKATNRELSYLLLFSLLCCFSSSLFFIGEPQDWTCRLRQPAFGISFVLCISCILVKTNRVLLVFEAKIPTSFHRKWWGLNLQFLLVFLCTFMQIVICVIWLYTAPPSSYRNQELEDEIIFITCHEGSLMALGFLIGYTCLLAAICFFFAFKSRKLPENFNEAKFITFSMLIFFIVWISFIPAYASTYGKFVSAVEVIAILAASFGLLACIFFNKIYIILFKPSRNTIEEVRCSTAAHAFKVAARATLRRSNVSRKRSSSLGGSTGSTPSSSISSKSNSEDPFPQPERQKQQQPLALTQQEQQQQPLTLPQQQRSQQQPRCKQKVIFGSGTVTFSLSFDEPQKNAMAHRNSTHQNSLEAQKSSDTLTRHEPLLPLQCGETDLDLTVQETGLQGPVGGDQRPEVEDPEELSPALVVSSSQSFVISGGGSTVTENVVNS
Kind of assay: [Ca2+]i measurement with fluo-3 in HEK 293 4.0-7 cells stably transfected with hPCaR. Format: cell-based. As to conditions: fluo-3 fluorescence (485/530 nm), effect on [Ca^2+]i. How it is done:
The activities of the compounds of the present invention on calcium receptors were measured. In one embodiment, the measurement was performed in accordance with the method described in Example 4 of Nemeth et al., PCT/US95/13704 (International Publication No. WO96/12697) herein incorporated by reference.
A 4.0-kb NotI-HindIII fragment of the human parathyroid cell Ca^2+ receptor (hPCaR) cDNA was subcloned into the mammalian expression vector pCEP4 (Invitrogen) containing the hygromycin-resistant gene as a selectable marker. This plasmid was transfected into HEK 293 cells by calcium phosphate precipitation. Transfected cells were grown in Dulbecco's modified Eagle's medium containing 10% fetal bovine serum and hygromycin (200 μg/mL). Hygromycin-resistant colonies were subcloned and assayed for hPCaR mRNA by solution hybridization using a ^32P-labeled RNA probe complementary to the (4.0 kb) hPCaR sequence (Garrett, et al., J. Biol. Chem. 270, 12919-12925 (1995)). Clone 7 was used to assess the effects of compounds on [Ca^2+]i. This stably transfected cell line is termed HEK 293 4.0-7. For measurements of [Ca^2+]i, the cells were recovered from tissue culture flasks by brief treatment with 0.02% EDTA and then washed and resuspended in PCB containing 1 mM CaCl2 and 0.1% Bovine Serum Albumin (“BSA”). The cells were loaded with fluo-3 by incubation for 30 min at 37° C., with parathyroid cell buffer (126 mM NaCl, 4 mM KCl, 1 mM MgSO4, 0.7 mM K2HPO/KH2PO4, 20 mM HEPES.NaOH (pH 7.45)) containing 0.5% BSA in lmM CaCl2 and 2 μM fluo-3 acetoxymethyl ester. The cells were subsequently washed, each test compound was added to the cells and the fluorescence was recorded by using excitation and emission wavelengths of 485 and 530 nm, respectively.

As for `COc1ccc(CN[C@H](C)c2cccc3ccccc23)cc1-c1nc2ccccc2s1` [(1R)-N-((3-(1,3-benzothiazol-2-yl)-4-(methyloxy)phenyl)methyl)-1-(1-naphthalenyl)ethanamine], the EC50 was no more than 10 µM.

Regarding `CC(=O)Nc1cccc(-c2cccc(CN[C@H](C)c3cccc4ccccc34)c2)c1` [N-(3′-((((1R)-1-(1-naphthalenyl)ethyl)amino)methyl)-1,1′-biphenyl-3-yl)acetamide], the EC50 is no more than 10 µM.

Compound `COc1ccc(CN[C@H](C)c2ccccc2)cc1-c1ccoc1` [(1R)-N-((3-(3-furanyl)-4-(methyloxy)phenyl)methyl)-1-phenylethanamine] returned a concentration giving a half-maximal response (EC50) of no more than 10 µM.

Turning to `Cc1ccc([C@@H](C)NCc2cccc(-c3ccccn3)c2)cc1` [(1R)-1-(4-methylphenyl)-N-((3-(2-pyridinyl)phenyl)methyl)ethanamine], the EC50 is no more than 10 µM.

Compound `COc1ccc(CN[C@H](C)c2ccccc2)cc1-c1ccc2c(c1)ncn2C` [(1R)-N-((3-(1-methyl-1H-benzimidazol-5-yl)-4-(methyloxy)phenyl)methyl)-1-phenylethanamine] returned an EC50 of no more than 10 µM.

The compound `COc1cccc([C@@H](C)NCc2ccc(OC)c(-c3ccc(OC)nn3)c2)c1` [(1R)-N-((4-(methyloxy)-3-(6-(methyloxy)-3-pyridazinyl)phenyl)methyl)-1-(3-(methyloxy)phenyl)ethanamine] returned an EC50 of no more than 10 µM.

As to `COc1ccc([C@@H](C)NCc2cccc(-c3cnccn3)c2)cc1` [(1R)-1-(4-(methyloxy)phenyl)-N-((3-(2-pyrazinyl)phenyl)methyl)ethanamine], the EC50 was no more than 10 µM.

In turn, `CCNC(=O)Nc1ccc(CN[C@H](C)c2cccc3ccccc23)cc1-c1ccc(OC)cc1` [N-ethyl-N′-(4′-(methyloxy)-5-((((1R)-1-(1-naphthalenyl)ethyl)amino)methyl)-1,1′-biphenyl-2-yl)urea] displayed an EC50 of no more than 10 µM.

The compound `COc1ccc([C@@H](C)NCc2ccc(OC)c(-c3ccsc3)c2)cc1` [(1R)-1-(4-(methyloxy)phenyl)-N-((4-(methyloxy)-3-(3-thienyl)phenyl)methyl)ethanamine] gave an EC50 of no more than 10 µM.

For `COc1ccc(CN[C@H](C)c2ccccc2)cc1-c1csc2ccccc12` [(1R)-N-((3-(1-benzothien-3-yl)-4-(methyloxy)phenyl)methyl)-1-phenylethanamine], the EC50 is no more than 10 µM.

`COc1cccc([C@@H](C)NCc2cccc(-c3cnccn3)c2)c1` [(1R)-1-(3-(methyloxy)phenyl)-N-((3-(2-pyrazinyl)phenyl)methyl)ethanamine] returned an EC50 of no more than 10 µM.

On to `C[C@@H](NCc1ccc(Cl)c(-c2cccnc2)c1)c1ccccc1` [Example 434, (1R)-N-((4-chloro-3-(3-pyridinyl)phenyl)methyl)-1-phenylethanamine], for which the EC50 was no more than 10 µM.

For the compound `COc1cccc([C@@H](C)NCc2ccc(OC)c(-c3ccc4c(ccn4CC(N)=O)c3)c2)c1` [2-(5-(2-(methyloxy)-5-((((1R)-1-(3-(methyloxy)phenyl)ethyl)amino)methyl)phenyl)-1H-indol-1-yl)acetamide], the half-maximal effective concentration (EC50) is no more than 10 µM.

As to `COc1ccc([C@@H](C)NCc2ccc(OC)c(-c3ccc4[nH]ccc4c3)c2)cc1` [(1R)-N-((3-(1H-indol-5-yl)-4-(methyloxy)phenyl)methyl)-1-(4-(methyloxy)phenyl)ethanamine], the concentration giving a half-maximal response (EC50) was no more than 10 µM.

As to `COc1ccc(CN[C@H](C)c2ccc3ccccc3c2)cc1-c1ccsc1` [(1R)-N-((4-(methyloxy)-3-(3-thienyl)phenyl)methyl)-1-(2-naphthalenyl)ethanamine], the concentration for a half-maximal effect (EC50) was no more than 10 µM.

With `COc1ccc([C@@H](C)NCc2ccc(OC)c(-c3cccc(C#N)c3)c2)cc1` [2′-(methyloxy)-5′-((((1R)-1-(4-(methyloxy)phenyl)ethyl)amino)methyl)-1,1′-biphenyl-3-carbonitrile], the half-maximal effective concentration (EC50) is no more than 10 µM.

Take `COc1cccc([C@@H](C)NCc2ccc(OC)c(-c3ccccc3)c2)c1` [(1R)-N-((6-(methyloxy)-1,1′-biphenyl-3-yl)methyl)-1-(3-(methyloxy)phenyl)ethanamine]: the EC50 is no more than 10 µM.

For `COc1ccc(CN[C@H](C)c2ccccc2)cc1-c1ccc2nonc2c1` [(1R)-N-((3-(2,1,3-benzoxadiazol-5-yl)-4-(methyloxy)phenyl)methyl)-1-phenylethanamine], the EC50 was no more than 10 µM.

`COc1ccc([C@@H](C)NCc2ccc(OC)c(-c3cnccn3)c2)cc1` [(1R)-1-(4-(methyloxy)phenyl)-N-((4-(methyloxy)-3-(2-pyrazinyl)phenyl)methyl)ethanamine] gave an EC50 of no more than 10 µM.

`C[C@@H](NCc1cccc(-c2nccs2)c1)c1ccccc1` [Example 218, (1R)-1-phenyl-N-((3-(1,3-thiazol-2-yl)phenyl)methyl)ethanamine] gave an EC50 of no more than 10 µM.

As for `COc1cccc([C@@H](C)NCc2ccc(OC)c(C3CCN(C)CC3)c2)c1` [(1R)-N-((4-(methyloxy)-3-(1-methyl-4-piperidinyl)phenyl)methyl)-1-(3-(methyloxy)phenyl)ethanamine], the EC50 was no more than 10 µM.

`COc1ccc(CN[C@H](C)c2ccc3ccccc3c2)cc1-c1cnccn1` [(1R)-N-((4-(methyloxy)-3-(2-pyrazinyl)phenyl)methyl)-1-(2-naphthalenyl)ethanamine] gave an EC50 of no more than 10 µM.

`C[C@@H](NCc1cccc(-c2ccccn2)c1)c1ccccc1` [(1R)-1-phenyl-N-((3-(2-pyridinyl)phenyl)methyl)ethanamine] returned an EC50 of no more than 10 µM.

On to `COc1ccc(CN[C@H](C)c2cccc3ccccc23)cc1-c1ccc2ocnc2c1` [(1R)-N-((3-(1,3-benzoxazol-5-yl)-4-(methyloxy)phenyl)methyl)-1-(1-naphthalenyl)ethanamine], for which the EC50 is no more than 10 µM.

Compound `COc1ccc(CN[C@H](C)c2ccccc2)cc1-c1ccc2ncccc2c1` [(1R)-N-((4-(methyloxy)-3-(6-quinolinyl)phenyl)methyl)-1-phenylethanamine] showed an EC50 of no more than 10 µM.

Compound `COc1cccc([C@@H](C)NCc2ccc(OC)c(-c3ccc4[nH]ccc4c3)c2)c1` [(1R)-N-((3-(1H-indol-5-yl)-4-(methyloxy)phenyl)methyl)-1-(3-(methyloxy)phenyl)ethanamine] displayed a concentration for a half-maximal effect (EC50) of no more than 10 µM.

With `COc1cccc([C@@H](C)NCc2ccc(OC)c(-c3cccs3)c2)c1` [(1R)-1-(3-(methyloxy)phenyl)-N-((4-(methyloxy)-3-(2-thienyl)phenyl)methyl)ethanamine], the EC50 was no more than 10 µM.

`COc1ccc([C@@H](C)NCc2cccc(-c3ccccc3C)c2)cc1` [(1R)-N-((2′-methyl-1,1′-biphenyl-3-yl)methyl)-1-(4-(methyloxy)phenyl)ethanamine] returned an EC50 of no more than 10 µM.

As for `COc1cccc([C@@H](C)NCc2ccc(Cl)c(-c3cccnc3)c2)c1` [(1R)-N-((4-chloro-3-(3-pyridinyl)phenyl)methyl)-1-(3-(methyloxy)phenyl)ethanamine], the EC50 is no more than 10 µM.

In the case of `COc1ccc(-c2cccc(CN[C@H](C)c3cccc(OC)c3)c2)cc1` [(1R)-N-((4′-(methyloxy)-1,1′-biphenyl-3-yl)methyl)-1-(3-(methyloxy)phenyl)ethanamine], the concentration for a half-maximal effect (EC50) was no more than 10 µM.

In turn, `COc1cccc([C@@H](C)NCc2ccc(OC)c(-c3csc(N4CCCCC4)n3)c2)c1` yielded an EC50 of no more than 10 µM.
